Measured values from article PMC11883425, “The synthesis and investigation of novel 3-benzoylbenzofurans and pyrazole derivatives for anti-HIV activity” (RSC Medicinal Chemistry, 2025).
Like-named read-outs stand apart in the source and are kept apart here.

Tests used:
Assay type in all cases: cell-based
[1] = Cytotoxicity in TZM-bl cells by MTT assay; conditions: human, MTT assay, 48 hours, mean ± SEM
Protocol: All cell culture reagents and cell growth medium were purchased from Sigma-Aldrich/Merck. The cell lines are TZM-bl cells (HeLa cells derived cell that is genetically engineered to contain CD4 and CCR5/CXCR4 receptor) were obtained from NIH AIDS Reagent Program and HEK 293T (derived from human embryonic kidney cells) were received as donations from the lab of Dr Patience Mthunzi, Biophotonics laboratory, CSIR. […] The cells were cultured in T-75 culture flasks (Lasec SA (Pty) Ltd Johannesburg) in Dulbecco's modified Eagle's medium (DMEM) with 3.7 g L^−1 […], 0.05% (v/v) gentamicin/mL, 1% penicillin/streptomycin and 10% heat-inactivated fetal bovine serum (Celtic Molecular Diagnostics). All incubations for tissue cell culture were conducted in a 37 °C, 5% CO2, and 95% humidity incubator.
The cytotoxicity of compounds was evaluated in TZM-bl cells since these cells are susceptible to HIV infections and would be used for the evaluation of HIV entry inhibition by 3-benzoylbenzofurans and pyrazole derivatives.[74] MTT dye (3-(4,5-dimethylthiazol-2-yl)-2,5-diphenyltetrazolium bromide), which is reduced by viable cells to produce […] purple formazan, was then measured and correlated with cell viability.[75] TZM-bl cells were cultured to confluency in DMEM containing 10% FBS and harvested by centrifugation at 1200 × g for 5 minutes. The cells were counted at 1 × 10^5 cells per mL per well and were seeded overnight, followed by treatment with serially diluted compounds from 500 to 0.98 μM for 48 hours. The peripheral blood mononuclear cells (PBMCs) were isolated from the blood of HIV-negative volunteers, treated with phytohaemagglutinin-protein (PHA, 4 μg mL^−1) to stimulate the cells for 2 hours. PBMCs were diluted in RPMI-1640 medium, counted and 1 × 10^6 cells per mL were treated with compounds (500 to 0.98 μM) for 48 hours. Cells were harvested by centrifugation at 1200 × g for 5 minutes, and the supernatants were removed. For the PBMCs, MTS dye (3-(4,5-dimethylthiazol-2-yl)-5-(3-carboxymethoxyphenylo)-2-(4-sulfophenyl)-2H-tetrazolium) was used.[76] A 100 μL of tetrazolium dye (5 mg mL^−1 MTT prepared in DMEM or 1 : 9 dilution MTS prepared in RPMI-1640) was added to the wells and incubated for 4 to 24 hours. MTT samples were solubilized with 100 μL solubilization buffer (1 mL HCl: 9 mL isopropanol) for 30 minutes, and the absorbance reading was taken at 550 nm and 690 nm wavelengths. MTS sample readings were taken at 490 nm without a solubilization step using the SpectraMax^R Paradigm^R Multi-Mode Detection Platform plate reader (Molecular Devices, California, USA).

HIV-1 Q23 pseudovirus = experiment: HIV-1 whole virus inhibition assay, Q23 pseudovirus (luciferase, TZM-bl cells)
Protocol: (§1) The HIV pseudoviruses were produced from the plasmids that were kindly donated by Dr Mthunzi-Kufa (CSIR, South Africa). Competent DH5α cells and STBL2 cells were transformed with envelope (CAP210.2.00.E8 and Q23.17) and backbone plasmid (HIV-1 SG3 ΔEnv) through heat-shock at 42 °C for 90 seconds and cooled in ice for 5 minutes. The transformed cells were grown in Luria Bertani medium containing 100 μg mL^−1 ampicillin and glycerol stocks were prepared. The transformed cells were grown at 37 °C in a 200 rpm shaking incubator overnight and the plasmids were isolated from the cells using a GeneJET plasmid Miniprep Kit (ThermoFisher Scientific Inc). The purity of the isolated plasmids was assessed for purity using Nanodrop. The HEK 293T cells were co-transfected with the backbone (10 μg) and envelope plasmids (5 μg) using the PolyFect Transfection Reagent (QIAGEN N.V) for 8–12 hours and the transfected cells were grown for 48 hours producing pseudoviruses which were collected, and stocks stored at −80 °C.
(§2) The compounds were serial diluted from 100 to1.56 μM in 96 well plates (Separation Scientific SA (Pty) Ltd) and incubated with either CAP210 or Q23 pseudoviruses (200 TCID50) and incubated for 1 hour. The TZM-bl cells (1 × 10^5 cells per mL containing 7.5 μg mL^−1 DEAE-dextran) were added and incubated for 48 hours. The 96 well plates were centrifuged, and the supernatant was removed leaving only 50 μL in each well. The Bright-Glo™ Luciferase substrate (Anatech Instruments (Pty) Ltd) (50 μL) was added to each well and incubated for 2 minutes in the dark and chemiluminescence readings were taken in a Corning® 96-well white polystyrene plate using a SpectraMax® Paradigm® Multi-Mode Microplate Reader.

HIV-1 CAP210 pseudovirus = experiment: HIV-1 whole virus inhibition assay, CAP210 pseudovirus (luciferase, TZM-bl cells); conditions: TZM-bl, 48 h, read-out: IC50 (μM) CAP210, CAP210 pseudovirus, TZM-bl cells, 48 hours
Protocol: as §1, §2

[2] = TZM-bl, 48 h, read-out: IC50 (μM) Q23, Q23 pseudovirus, TZM-bl cells, 48 hours

| Compound | CC50 at 48 h [1] [µM] | IC50 (HIV-1 Q23 pseudovirus; [2]) [µM] | IC50 (HIV-1 CAP210 pseudovirus) [µM] | IC50 (HIV-1 Q23 pseudovirus; {}) [µM] |
| --- | --- | --- | --- | --- |
| COc1ccc(OC)c(C(=O)c2coc3ccc(O)cc23)c1 [3h, (5-Hydroxybenzofuran-3-yl)(2,5-dimethoxyphenyl)methanone] | 50 ± 10.5 | 5.74 ± 1.51 | 4.45 ± 0.82 |  |
| COc1ccc(OC)c(C(=O)c2coc3c2cc(OC)c2ccccc23)c1 [4c, (2,5-Dimethoxyphenyl)(5-methoxynaphtho[1,2-b]furan-3-yl)methanone] | 9.65 ± 2.37 | 12.6 ± 0.53 | 2.43 ± 1.28 |  |
| COc1cc(F)ccc1C(=O)c1coc2ccc(O)cc12 [3f, (4-fluoro-2-methoxyphenyl)(5-hydroxy-1-benzofuran-3-yl)methanone] | 41.9 ± 6.33 | 40.6 ± 7.85 | 11.2 ± 0.31 |  |
| COc1ccc(-c2n[nH]cc2-c2cc(O)ccc2O)c(OC)c1OC [5g, 2-[3-(2,3,4-Trimethoxyphenyl)-1H-pyrazol-4-yl]benzene-1,4-diol] | 140 ± 17.1 | < 10 | 13.8 ± 1.7 | 9.93 ± 0.69 |
| COc1ccc(OC)c(-c2n[nH]cc2-c2c(C)c(OC)cc(C)c2O)c1 [5b, 2-[3-(2,5-Dimethoxyphenyl)-1H-pyrazol-4-yl]-4-methoxy-3,6-dimethylphenol] | 46.5 ± 6.66 | 10.1 ± 1.66 | 7.87 ± 0.91 |  |
| COc1ccc(OC)c(-c2n[nH]cc2-c2cc(OC)c3ccccc3c2O)c1 [5c, 2-[3-(2,5-Dimethoxyphenyl)-1H-pyrazol-4-yl]-4-methoxynaphthalen-1-ol] | 47.7 ± 17.7 | 13 ± 3.75 | 20.5 ± 6.8 |  |
| COc1ccc(Br)cc1C(=O)c1coc2c1cc(OC)c1ccccc12 [4d, (5-Bromo-2-methoxyphenyl)(5-methoxynaphtho[1,2-b]furan-3-yl)methanone] | 7.77 ± 1.54 | 22.4 ± 3.47 | 3.28 ± 1.48 |  |
| COc1cc(F)ccc1-c1n[nH]cc1-c1cc(OC)c2ccccc2c1O [5e, 2-[3-(4-Fluoro-2-methoxyphenyl)-1H-pyrazol-4-yl]-4-methoxynaphthalen-1-ol] | 103 ± 11.1 | 15.7 ± 8.17 | 29.09 ± 0.18 |  |
| COc1ccc(Br)cc1-c1n[nH]cc1-c1cc(OC)c2ccccc2c1O [5d, 2-[3-(5-Bromo-2-methoxyphenyl)-1H-pyrazol-4-yl]-4-methoxynaphthalen-1-ol] | 75 ± 6.4 | 16.2 ± 2.55 | 20.8 ± 1 |  |
| COc1cc(F)ccc1C(=O)c1coc2c1cc(OC)c1ccccc12 [4e, (4-Fluoro-2-methoxyphenyl)(5-methoxynaphtho[1,2-b]furan-3-yl)methanone] | 35.2 ± 2.32 | 20.9 ± 2.2 | 4.27 ± 0.19 |  |
| COc1ccc(OC)c(C(=O)c2coc3cc(C)c(OC)c(C)c23)c1 [4a, (2,5-Dimethoxyphenyl)(5-methoxy-4,6-dimethyl-1-benzofuran-3-yl)methanone] | 59.1 ± 6.56 | 18.1 ± 1.78 | 8.12 ± 2.56 |  |
